Laboratory results reported in US4226610A, “Herbicidal compounds, preparation thereof and herbicides containing the same” (Meiji Selka Kaisha, Ltd., priority 1978, dated 1980).

Columns and labels:
torch azalea = experiment: Experiment 3 foliar application to naturally growing shrubs; format: in vivo, Rhododendoron Kaempferi Planch.; conditions: for Reproduction-inhibiting: after 3 months
Outline: (§1)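 Naturally growing shrubs were sprayed on the foliage at 150 liter per 10 are. Plant kill was then scored from 0 to 5 at 1 and 3 months, and reproduction was graded − to +++ at 3 months.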

greaterduckweed = experiment: Experiment 6 spray on aquatic plants in concrete pots; format: in vivo, Spirodela polyrhiza Sohleid.; conditions: for Reproduction-inhibiting effect: 3 months
Text: (§2) The detail of the assessment made in the following Experiments of the invention was as follows:
(§3) Four months after treatment, evaluation was made for inhibition of reproduction expressed in terms of symbols ranging from (-) to (+++) where (-) means no reproduction, namely complete suppression of reproduction, (±) remarkable suppression of reproduction; (+) considerable suppression of reproduction; (++) medium supprestion of reproduction; and (+++) no suppression of reproduction.
(§4) A paddy field soil was packed in 50 cm. square concrete pots. omodaka (Sagittaria trifolia L.), urikawa (Sagittaria pygmaea Miq.), prog-bit (Hydrocharis dubia) and aginashi (Sagittaria Aginashi Makino) were transplanted; then water was poured onto the soil at 5 cm. depth.
(§5) Further, water hyacinth, greater-duckweed (Spirodela polyrhiza Schleid.) and duckweed (Lemna paucicostata Hegelm) were floated on the water.
(§6) After one month, the compounds of the invention diluted to the prescribed concentrations as indicated in Table 8 were sprayed in an amount of 100 liter per 10 are. As a surfactant, 0.1% of octylphenyl polyoxyethanol was added thereto.
(§7) The killing index (0, no effect; 5, death) after 21 days and 3 months and the reproduction-inhibiting effect (-, no reproduction; +++, maximum reproduction) after 3 months were determined.

salvinia = experiment: Experiment 7 application to water; format: in vivo, Salvinia natans Allioni; parameters: scale not given here
Text: (§8) A black soil was packed in 50 cm. square concrete pots and water was poured there-onto at 50 cm. in depth. Hornwort (Ceratophyllum demersum L.), stonewort (Chara Braunii Gmel.) and salvinia (Salvinia natans All.) were transplanted and pond scum (Spirogira crassa Kutz) and diatoms (Bacillariophyta) were floated in the water.
(§9) Then, the compounds of the invention were applied dropwise onto the surface of the water so that the prescribed concentrations in the water are obtained as indicated in Table 9.

hornwort = experiment: Experiment 7 application to water; format: in vivo, Ceratophyllum demersum L.; parameters: scale not given here
Text: as §8, §9

water hyacinth = experiment: Experiment 6 spray on aquatic plants in concrete pots; format: in vivo, Eichhornia crassipes Solms; conditions: for Reproduction-inhibiting effect: 3 months
Text: as §2, §3, §4, §5, §6, §7

diatoms = experiment: Experiment 7 application to water; format: in vivo, Bacillariophyta; parameters: key: 0: no effect; 5: perfect control
Text: as §8, §9

omodaka = experiment: Experiment 6 spray on aquatic plants in concrete pots; format: in vivo, Sagittaria trifolia L.; conditions: 3 months
Text: as §2, §3, §4, §5, §6, §7

progbit = experiment: as above; format: in vivo, Hydrocharis dubia; conditions: 3 months
Text: as §2, §3, §4, §5, §6, §7

cockspar grass = experiment: Experiment 1 foliar application to naturally growing weeds; format: in vivo, Echinochloa Crusgalli P. Beauv.; conditions: for Reproduction-inhibiting effect: 2 months
Outline: (§10)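 Dilute compounds to prescribed concentrations; add 0.1% octylphenyl polyoxyethanol; spray foliage of in-situ weeds at 150 liter per 10 are. Score killing 0–5 on day 21. Score reproduction (-) to (+++) at month 2 (cockspar grass) or month 4 (chigaya, azumanezasa, warunasubi).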

yamazakura = experiment: Experiment 3 foliar application to naturally growing shrubs; format: in vivo, Prunus donarium Sieb. var. spontanae Makino; conditions: after 3 months
Outline: as §1

Japanese prickly ash = experiment: as above; format: in vivo, Xanthoxylum piperitum DC.; conditions: after 3 months
Outline: as §1

chigaya = experiment: Experiment 1 foliar application to naturally growing weeds; format: in vivo, Imperata cylindrica Beauv.; conditions: 4 months
Outline: as §10

pond scum = experiment: Experiment 7 application to water; format: in vivo, Spirogira crassa Kutz.; parameters: scale not given here
Text: as §8, §9

kiichigo = experiment: Experiment 3 foliar application to naturally growing shrubs; format: in vivo, Rubus palmatsu Thunb. forma coptophyllus Makino; conditions: after 3 months
Outline: as §1

manna grass = experiment: Experiment 1 foliar application to naturally growing weeds; format: in vivo, Digitaria adsceudes Henr.; conditions: for Reproduction-inhibiting effect: 2 months
Outline: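 Foliar spray on field weeds at 150 liter per 10 are, compounds at prescribed concentrations plus 0.1% octylphenyl polyoxyethanol. Day 21: killing index 0–5 (5 = death). Reproduction scored (-) to (+++) (- = none): cockspar grass at 2 months, chigaya, azumanezasa and warunasubi at 4 months.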

warunasubi = experiment: as above; format: in vivo, Solanum carolinensis L.; conditions: for Reproduction-inhibiting effect: 4 months
Outline: as §10

purple nutsedge = experiment: as above; format: in vivo, Cyperus rotundus L.; conditions: 4 months
Outline: (§11)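 Naturally growing weeds receive a foliar spray of compound at prescribed concentrations, 150 liter per 10 are, containing 0.1% octylphenyl polyoxyethanol. Kill is rated 0 (no effect) to 5 (death) after 21 days. Regrowth is rated (-) to (+++) after 4 months, or 2 months for cockspar grass.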

oak = experiment: Experiment 3 foliar application to naturally growing shrubs; format: in vivo, Quercus serrata Thunb; conditions: after 3 months
Outline: as §1

white clover = experiment: Experiment 1 foliar application to naturally growing weeds; format: in vivo, Trifolium repens L.; conditions: 4 months
Outline: as §11

## C[C@H](NC(=O)[C@H](C)NC(=O)[C@@H](N)CCP(C)(=O)O)C(=O)O [SF-1293 choline, (L-2-Amino-4-methylphosphinobutyryl)-L-alanyl-L-alanine choline]
Torch azalea; 0.05%
  Reproduction-inhibiting: ++
Torch azalea; 0.1%
  Reproduction-inhibiting: -
Torch azalea; 0.1%, after 30 days
  Killing index: 4.5
Torch azalea; 0.2%
  Reproduction-inhibiting: -
greaterduckweed; 0.05%
  Reproduction-inhibiting effect: +
greaterduckweed; 0.1%
  Reproduction-inhibiting effect: -
greaterduckweed; 0.1%, 21 days
  Killing index: 4.5
greaterduckweed; 0.2%
  Reproduction-inhibiting effect: -
salvinia; 1 ppm, 3 months
  controlling effect: 3
salvinia; 1 ppm, 21 days
  controlling effect: 3.5
salvinia; 3 ppm, 3 months
  controlling effect: 5
salvinia; 3 ppm, 21 days
  controlling effect: 4.5
salvinia; 10 ppm, 3 months
  controlling effect: 5
salvinia; 10 ppm, 21 days
  controlling effect: 5
hornwort; 1 ppm, 3 months
  controlling effect: 1
hornwort; 1 ppm, 21 days
  controlling effect: 2
hornwort; 3 ppm, 3 months
  controlling effect: 5
hornwort; 3 ppm, 21 days
  controlling effect: 4
hornwort; 10 ppm, 3 months
  controlling effect: 5
hornwort; 10 ppm, 21 days
  controlling effect: 5
Water hyacinth; 0.05%
  Reproduction-inhibiting effect: ++
Water hyacinth; 0.1%
  Reproduction-inhibiting effect: -
Water hyacinth; 0.1%, 21 days
  Killing index: 4.5
Water hyacinth; 0.2%
  Reproduction-inhibiting effect: -
diatoms; 1 ppm, 3 months
  controlling effect: 1
diatoms; 1 ppm, 21 days
  controlling effect: 2
diatoms; 3 ppm, 3 months
  controlling effect: 5
diatoms; 3 ppm, 21 days
  controlling effect: 3
diatoms; 10 ppm, 3 months
  controlling effect: 5
diatoms; 10 ppm, 21 days
  controlling effect: 5
omodaka; 0.05%
  Reproduction-inhibiting effect: ++
omodaka; 0.1%
  Reproduction-inhibiting effect: ±
omodaka; 0.2%
  Reproduction-inhibiting effect: -
progbit; 0.05%
  Reproduction-inhibiting effect: ++
progbit; 0.1%
  Reproduction-inhibiting effect: ±
progbit; 0.2%
  Reproduction-inhibiting effect: -
Cockspar grass; 0.05%
  Reproduction-inhibiting effect: +
Cockspar grass; 0.1%
  Reproduction-inhibiting effect: ±
Cockspar grass; 0.1%, 21 days
  Killing index of Upperground parts: 4.5
Cockspar grass; 0.2%
  Reproduction-inhibiting effect: -
yamazakura; 0.05%
  Reproduction-inhibiting: ++
yamazakura; 0.1%
  Reproduction-inhibiting: -
yamazakura; 0.2%
  Reproduction-inhibiting: -
Japanese prickly ash; 0.05%
  Reproduction-inhibiting: ++
Japanese prickly ash; 0.1%
  Killing index: 4.5
  Reproduction-inhibiting: ±
Japanese prickly ash; 0.2%
  Reproduction-inhibiting: -
chigaya; 0.05%
  Reproduction-inhibiting effect: +
chigaya; 0.1%
  Reproduction-inhibiting effect: -
chigaya; 0.2%
  Reproduction-inhibiting effect: -
Pond scum; 1 ppm, 3 months
  controlling effect: 1
Pond scum; 1 ppm, 21 days
  controlling effect: 2
Pond scum; 3 ppm, 3 months
  controlling effect: 5
Pond scum; 3 ppm, 21 days
  controlling effect: 3.5
Pond scum; 10 ppm, 3 months
  controlling effect: 5
Pond scum; 10 ppm, 21 days
  controlling effect: 5
kiichigo; 0.05%
  Reproduction-inhibiting: ++
kiichigo; 0.1%
  Reproduction-inhibiting: -
kiichigo; 0.2%
  Reproduction-inhibiting: -
Manna grass; 0.05%
  Reproduction-inhibiting effect: +
Manna grass; 0.1%
  Reproduction-inhibiting effect: ±
Manna grass; 0.1%, 21 days
  Killing index of Upperground parts: 4.5
Manna grass; 0.2%
  Reproduction-inhibiting effect: -
warunasubi; 0.05%
  Reproduction-inhibiting effect: ++
warunasubi; 0.05%, 21 days
  Killing index of Upperground parts: 3.5
warunasubi; 0.1%
  Reproduction-inhibiting effect: ±
warunasubi; 0.2%
  Reproduction-inhibiting effect: -
Purple nutsedge; 0.05%
  Reproduction-inhibiting effect: ++
Purple nutsedge; 0.1%
  Reproduction-inhibiting effect: +
Purple nutsedge; 0.2%
  Reproduction-inhibiting effect: ±
oak; 0.05%
  Reproduction-inhibiting: ++
oak; 0.1%
  Reproduction-inhibiting: -
oak; 0.2%
  Reproduction-inhibiting: -
White clover; 0.05%
  Reproduction-inhibiting effect: +
White clover; 0.1%
  Reproduction-inhibiting effect: -
White clover; 0.2%
  Reproduction-inhibiting effect: -
